Test results: paper PMC6479814, “Structure-Based Design of Novel Benzimidazole Derivatives as Pin1 Inhibitors” (Molecules, 2019)

How the values were obtained:
PC-3 cells = assay: In vitro anti-proliferative MTT assay; assay type: cell-based, human; conditions: for GI50: Homo sapiens, PC-3 cells, MTT, 96 h; for antiproliferative activity against human prostate cancer PC-3 cells: result in words
Description: As for Pin1 was overexpressed in human prostate cancer cells, the antiproliferative activity of these benzimidazole derivatives against PC-3 cells were further evaluated by MTT assay. Meanwhile, the polar surface area (PSA) of these compounds was calculated under the optimal conformation since PSA is the key indicator of membrane permeability.
The tested cells were plated in 96-well microtiter plates with a density of 2,000 cells/well and incubated in a humidified atmosphere with 5% CO2 at 37 °C for 24 h. The cells were then exposed to tested compounds of different concentrations in triplicate. After incubated for 96 h, 50 μL of 3-(4,5-dimethylthiazol-2-yl)-2,5-diphenyltetrazolium bromide (MTT) solution (2 mg/mL) was added to each well and incubated for an additional 4 h. Then the suspernatant was discarded and the fromazan was dissolved in 200 μL of dimethyl sulfoxide (DMSO). The plate was oscillated subtly at room temperature for 10 min before the absorbance was measured at 570 nm by a microplate reader. Cell inhibitory ratio was calculated with the following formula:Inhibitory Rate (%) = [(Acontrol − Atreated)/Acontrol] × 100%(1)
The GI50 was determined as the concentration that caused half inhibition of cell proliferation. All experiments were performed three times independently, and the results were reported presented as the mean.

Pin1 = biological target: T1, Pin1 (Homo sapiens, UniProt Q13526); assay: Pin1 inhibition, protease-coupled assay; assay type: biochemical; conditions: 10 °C; for inhibition at 10 µM: Pin1, compound at 10 μM; for IC50: Pin1, protease-coupled assay
T1 construct: purchased Sino Biological Inc., Beijing, China
T1 sequence (Q13526 whole entry): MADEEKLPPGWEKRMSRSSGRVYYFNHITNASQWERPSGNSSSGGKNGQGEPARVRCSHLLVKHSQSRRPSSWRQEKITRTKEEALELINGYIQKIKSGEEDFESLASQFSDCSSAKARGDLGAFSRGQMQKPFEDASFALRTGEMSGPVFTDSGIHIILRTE
Description: To investigate the Pin1 inhibitory potency of all synthesized compounds, the inhibition ratio at 10 μM or IC50 of all synthesized compounds was determined using protease-coupled assay.
Pin1 inhibitory activities were measured at 10 °C by protease-coupled assay as reported previous. Suc-Ala-Glu-cis-Pro-Phe-4-nitroaniline (Bachem, Bubendorf, Switzerland) in 0.47 mol/L, LiCl/trifluoroethanol was used as the substrate. The assay buffer (860 μL of 35 mM HERES at pH 7.8), Pin1 (20 μL, Bought from Sino Biological Inc., Beijing, China) and target compounds (10 μL of varying comcentrations in DMSO) were pre-equilibtated in the cuvette at 10 °C for 30 min. Then, 150 uL of ice-cooled chymotrypsin (60 mg/mL in 0.001 M/HCl) was added and mixed immediately. Additional substrate (40 μL) was added to start the assay and the reaction was monitored by absorbance at 390 nm for 90 s. For each compound, four concentrations (10 μM, 3.3 μM, 1.1 μM, 0.37 μM) were chosen, and the assay was performed in duplicate. The data was analyzed by Graphpad Prism 6.0.

Structure (SMILES) | GI50 (PC-3 cells) [µM] | antiproliferative activity against human prostate cancer PC-3 cells (PC-3 cells) | inhibition at 10 µM (Pin1) [%] | IC50 (Pin1) [µM] | melting point [°C]
Cc1ccc(NC(=O)CCn2c(/C=C/C(=O)O)nc3ccccc32)cc1 [Compound 6d, (E)-3-(1-(3-Oxo-3-(p-tolylamino)propyl)-1H-benzo[d]imidazol-2-yl)acrylic acid] | 17.4 | moderate antiproliferative activity | 75 | 1.65 | 221 to 222
O=C(O)/C=C/c1nc2ccccc2n1CCC(=O)Nc1cccc(Br)c1 [Compound 6h, (E)-3-(1-(3-((3-Bromophenyl)amino)-3-oxopropyl)-1H-benzo[d]imidazol-2-yl)acrylic acid] | 9.89 | moderate antiproliferative activity | 90 | 0.64 | 209 to 210
O=C(CCn1c(-c2nc(C(=O)O)cs2)nc2ccccc21)Nc1ccccc1 [Compound 13a, 2-(1-(3-Oxo-3-(phenylamino)propyl)-1H-benzo[d]imidazol-2-yl)thiazole-4-carboxylic acid] | > 50 |  | 73 |  | 226 to 228
COc1cc(NC(=O)CCn2c(/C=C/C(=O)O)nc3ccccc32)cc(OC)c1 [Compound 6i, (E)-3-(1-(3-((3,5-dimethoxyphenyl)amino)-3-oxopropyl)-1H-benzo[d]imidazol-2-yl)acrylic acid] | > 50 |  | 60 |  | 203 to 204
O=C(CCn1c(-c2nc(C(=O)O)cs2)nc2ccccc21)Nc1cccc(C(F)(F)F)c1 [Compound 13g, 2-(1-(3-Oxo-3-((3-(trifluoromethyl)phenyl)amino)propyl)-1H-benzo[d]imidazol-2-yl)thiazole-4-carboxylic acid] | > 50 |  | 99 | 0.37 | 178 to 180
COc1cccc(NC(=O)CCn2c(-c3nc(C(=O)O)cs3)nc3ccccc32)c1 [Compound 13d, 2-(1-(3-((3-Methoxyphenyl)amino)-3-oxopropyl)-1H-benzo[d]imidazol-2-yl)thiazole-4-carboxylic acid] | > 50 |  | 75 |  | 223 to 225
COc1ccc(CNC(=O)CCn2c(/C=C/C(=O)O)nc3ccccc32)cc1 [Compound 6l, (E)-3-(1-(3-((4-Methoxybenzyl)amino)-3-oxopropyl)-1H-benzo[d]imidazol-2-yl)acrylic acid] | > 50 |  | 42 |  | 203 to 205
O=C(CCn1c(-c2nc(C(=O)O)cs2)nc2ccccc21)Nc1cc(Cl)cc(Cl)c1 [Compound 13i, 2-(1-(3-((3,5-Dichlorophenyl)amino)-3-oxopropyl)-1H-benzo[d]imidazol-2-yl)thiazole-4-carboxylic acid] | > 50 |  | 80 | 1.35 | 192 to 194
COc1ccc(NC(=O)CCn2c(/C=C/C(=O)O)nc3ccccc32)cc1 [Compound 6e, (E)-3-(1-(3-((4-Methoxyphenyl)amino)-3-oxopropyl)-1H-benzo[d]imidazol-2-yl)acrylic acid] | > 50 |  | 48 |  | 215 to 217
O=C(O)/C=C/c1nc2ccccc2n1CCC(=O)NCc1ccc(Br)cc1 [Compound 6j, (E)-3-(1-(3-((4-Bromobenzyl)amino)-3-oxopropyl)-1H-benzo[d]imidazol-2-yl)acrylic acid] | > 50 |  | 59 |  | 210 to 212
Cc1cc(C)c(NC(=O)CCn2c(/C=C/C(=O)O)nc3ccccc32)c(C)c1 [Compound 6o, (E)-3-(1-(3-((2,4,6-Trimethylphenyl)amino)-3-oxopropyl)-1H-benzo[d]imidazol-2-yl)acrylic acid] | 11.1 | moderate antiproliferative activity | 84 | 0.97 | 275 to 278
O=C(O)/C=C/c1nc2ccccc2n1CCC(=O)Nc1cc(Cl)cc(Cl)c1 [Compound 6n, (E)-3-(1-(3-((3,5-Dichlorophenyl)amino)-3-oxopropyl)-1H-benzo[d]imidazol-2-yl)acrylic acid] | 20.3 | moderate antiproliferative activity | 71 | 1.87 | 152 to 154
O=C(O)/C=C/c1nc2ccccc2n1CCC(=O)Nc1ccccc1 [Compound 6c, (E)-3-(1-(3-Oxo-3-(phenylamino)propyl)-1H-benzo[d]imidazol-2-yl)acrylic acid] | > 50 |  | 46 |  | 228 to 230
COc1ccc(CCNC(=O)CCn2c(/C=C/C(=O)O)nc3ccccc32)cc1 [Compound 6m, (E)-3-(1-(3-((4-Methoxyphenethyl)amino)-3-oxopropyl)-1H-benzo[d]imidazol-2-yl)acrylic acid] | > 50 |  | 49 |  | 219 to 220
O=C(CCn1c(-c2nc(C(=O)O)cs2)nc2ccccc21)Nc1cccc([N+](=O)[O-])c1 [Compound 13f, 2-(1-(3-((3-Nitrophenyl)amino)-3-oxopropyl)-1H-benzo[d]imidazol-2-yl)thiazole-4-carboxylic acid] | > 50 |  | 40 |  | 234 to 236
O=C(O)/C=C/c1nc2ccccc2n1CCC(=O)Nc1ccc(Cl)cc1 [Compound 6f, (E)-3-(1-(3-((4-Chlorophenyl)amino)-3-oxopropyl)-1H-benzo[d]imidazol-2-yl)acrylic acid] | > 50 |  | 54 |  | 158 to 160
O=C1C=CC(=O)c2c(O)cccc21 [Juglone, reference compound] | 4.89 |  |  | 10 | 
O=C(O)/C=C/c1nc2ccccc2n1CCC(=O)NCCc1ccc(Br)cc1 [Compound 6k, (E)-3-(1-(3-((4-Bromophenethyl)amino)-3-oxopropyl)-1H-benzo[d]imidazol-2-yl)acrylic acid] | > 50 |  | 62 |  | 203 to 205
O=C(O)/C=C/c1nc2ccccc2n1CCC(=O)N1CCCCC1 [Compound 6a, (E)-3-(1-(3-oxo-3-(piperidin-1-yl)propyl)-1H-benzo[d]imidazol-2-yl)acrylic acid] | > 50 |  | 28 |  | 128 to 130
O=C(CCn1c(-c2nc(C(=O)O)cs2)nc2ccccc21)Nc1ccc(C(F)(F)F)cc1 [Compound 13h, 2-(1-(3-Oxo-3-((4-(trifluoromethyl)phenyl)amino)propyl)-1H-benzo[d]imidazol-2-yl)thiazole-4-carboxylic acid] | > 50 |  | 81 | 1.15 | 176 to 178
O=C(O)CCc1nc2ccccc2n1CCC(=O)Nc1ccc(Cl)cc1 [Compound 7b, 3-(1-(3-((4-Chlorophenyl)amino)-3-oxopropyl)-1H-benzo[d]imidazol-2-yl)propanoic acid] | > 50 |  | 31 |  | 66 to 68
O=C(CCn1c(-c2nc(C(=O)O)cs2)nc2ccccc21)Nc1cccc(Br)c1 [Compound 13b, 2-(1-(3-((3-Bromophenyl)amino)-3-oxopropyl)-1H-benzo[d]imidazol-2-yl)thiazole-4-carboxylic acid] | > 50 |  | 87 | 0.89 | 210 to 212
O=C(O)/C=C/c1nc2ccccc2n1CCC(=O)Nc1ccc(Br)cc1 [Compound 6g, (E)-3-(1-(3-((4-Bromophenyl)amino)-3-oxopropyl)-1H-benzo[d]imidazol-2-yl)acrylic acid] | 14.1 | moderate antiproliferative activity | 66 | 1.73 | 192 to 194
COc1cc(NC(=O)CCn2c(-c3nc(C(=O)O)cs3)nc3ccccc32)cc(OC)c1 [Compound 13e, 2-(1-(3-((3,5-Dimethoxyphenyl)amino)-3-oxopropyl)-1H-benzo[d]imidazol-2-yl)thiazole-4-carboxylic acid] | > 50 |  | 79 |  | 208 to 210
